Reference: patent publication US20210308093A1, “ACTIVATOR FOR SIMULTANEOUSLY ACTIVATING OXIDATIVE PHOSPHORYLATION AND INHIBITING GLYCOLYSIS AND USE THEREOF” (LANZHOU UNIVERSITY, priority 2019, published 2021)
“Also recorded” adds a separate entry of the source.

Legend:
[1] = test system: diethylnitrosamine-induced hepatocellular carcinoma; conditions: 400 mg/kg by gavage daily for 12 weeks
Protocol: (§1) The present disclosure carries out experiments to test proliferation inhibition effects of baicalein on hepatocellular-carcinoma cell lines HuH7 and HepG2 respectively, with IC50 values calculated. […] Moreover, the present disclosure establishes a diethylnitrosamine-induced mouse liver cancer model which is then intervened with baicalein.
(§2) All animal operations were carried out based on a protocol approved by the Animal Research Committee of Peking University, China, in accordance with the “Guidelines for Care and Use of Laboratory Animals” (NIH Publication No. 86-23, revised in 1985). All mice (C57BL/6j, Charles River, Beijing, China) were kept in a temperature-controlled barrier facility at Laboratory Animal Center in Peking University (laboratory animal facility approved by AAALAC) with a 12 h light/dark cycle, and had free access to food and water. Only male animals were used Animals were randomly grouped based on weight level. Five mice were selected for each group to meet requirements for statistical significance. A randomised, comparative, and single-blinded test was used. For wild littermates, modeling with diethylnitrosamine was started at 6 weeks of age and maintained for 24 weeks. After 12 weeks of modeling, 400 mg/kg baicalein (40 mg/mL saline) was administered by gavage daily for another 12 weeks, and then liver disease-related symptoms of these mice were analyzed.
(§3) A liver sample cut from a same leaf of each animal was fixed in 4% paraformaldehyde overnight at room temperature, dehydrated with an ethanol gradient, infiltrated with xylene and embedded in paraffin. A paraffin embedded tissue was used to prepare serial sections 5 μm thick for hematoxylin and eosin (H&E) staining.

[2] = mouse, in vivo
Protocol: as §1, §2, §3

HuH7 cells [3] = experiment: MTT assay, proliferation inhibition of hepatocellular-carcinoma cell line HuH7; format: cell-based
Protocol: as §1
(§4) Hela, HepG2, and HuH7 cells (from China Center for Type Culture Collection (Wuhan, China)) were cultured at 37° C. with 5% CO2 in Dulbecco's modified Eagle medium (DMEM, Thermo Fisher Scientific) supplemented with 10% fetal bovine serum (Thermo Fisher Scientific) and 1% penicillin-streptomycin (Thermo Fisher Scientific).
(§5) 10^4 cells were added to a 96-well plate. 100 μL of pre-warmed medium was added to each well. After attachment, the cells were starved in a serum-free medium for 24 h, and then transferred to a normal medium containing 100 μM baicalein and cultured for another 24 h. After treatment, the cells were incubated with 100 μL of conventional medium containing 50 μg MTT (Sigma-Aldrich) for 4 h. Finally, purple precipitates were dissolved in 200 μL of DMSO (Sigma-Aldrich), and absorbance at 490 nm was measured by a microplate reader (Bio-Rad).

[4] = test system: oxidative phosphorylation in mitochondria; experiment: Measurement of oxidative phosphorylation (ATP production) in mitochondria extracted from HuH7 cells; format: biochemical; conditions: concentration gradient and incubation time gradient
Protocol: Based on the above results, effect of baicalein on oxidative phosphorylation needs to be clarified initially. Therefore, effects of different concentrations of baicalein on oxidative phosphorylation are tested at a cellular level. […] Further analysis finds that, baicalein (100 μM) can improve basal respiration value, maximum respiration value and ATP production in oxidative phosphorylation. […] In order to further confirm effect of baicalein on the oxidative phosphorylation, the present disclosure further extracts mitochondria, a main site where the oxidative phosphorylation locates, and tests effect of baicalein concentration gradient and incubation time gradient on oxidative phosphorylation in the mitochondria. […] At this point, the present disclosure discovers a natural activator of the oxidative phosphorylation, the baicalein. […] Measurement of oxidative phosphorylation with Seahorse XF (Agilent): HuH7 cells, HepG2 cells and mitochondria were prepared. 1,000 cells or 4 μg mitochondria were added to the well plate provided by the Seahorse detection kit (Agilent, 103275-100). Related measurements were carried out following instructions. Measurement of oxidative phosphorylation (ATP production) with QQQ-MS (AB Sciex): mitochondria were extracted from HuH7 cells. A reaction system was prepared according to Table 1 below. 4 μg of mitochondria was added to a 100 μL reaction system. […]

HuH7 cells [5] = experiment: siRNA knockdown of key enzyme of oxidative phosphorylation, effect on anti-cancer activity (MTT, HuH7); format: cell-based
Excerpt: With quantitative proteomics analysis, the present disclosure finds that the natural product baicalein can activate the oxidative phosphorylation. Then, it is necessary to clarify relationship between activation of the oxidative phosphorylation by baicalein and anti-cancer activity thereof. Cancer cells have the “Warburg effect”, that is, cancer cells tend to use glycolysis in replace of the oxidative phosphorylation which normal cells tend to use, so that cancer cells grow at a much faster rate than normal cells. […] The present disclosure verifies this phenomenon in HepG2 and HuH7 cells. […] (See FIG. 4)
The siRNA constructs listed below were designed and synthesized by GenePharma (Shanghai, China). At a modeling stage before baicalein treatment, interference was performed based on the RNAiMAX (Thermo Fisher Scientific) protocol.
as §5

HepG2 cells = experiment: MTT assay, proliferation inhibition of hepatocellular-carcinoma cell line HepG2; format: cell-based
Protocol: as §1, §4, §5

[6] = test system: oxidative phosphorylation in HuH7 cells; experiment: Measurement of oxidative phosphorylation and glycolysis in HuH7 cells (Seahorse XF); format: cell-based
Protocol: Based on the above results, effect of baicalein on oxidative phosphorylation needs to be clarified initially. Therefore, effects of different concentrations of baicalein on oxidative phosphorylation are tested at a cellular level. […] Further analysis finds that, baicalein (100 μM) can improve basal respiration value, maximum respiration value and ATP production in oxidative phosphorylation. […] In order to further confirm effect of baicalein on the oxidative phosphorylation, the present disclosure further extracts mitochondria, a main site where the oxidative phosphorylation locates, and tests effect of baicalein concentration gradient and incubation time gradient on oxidative phosphorylation in the mitochondria. […] At this point, the present disclosure discovers a natural activator of the oxidative phosphorylation, the baicalein. […] 1,000 cells or 4 μg mitochondria were added to the well plate provided by the Seahorse detection kit (Agilent, 103275-100). Related measurements were carried out following instructions.

[7] = test system: oxidative phosphorylation in HepG2 cells; experiment: Measurement of oxidative phosphorylation and glycolysis in HepG2 cells (Seahorse XF); format: cell-based
Excerpt: With quantitative proteomics analysis, the present disclosure finds that the natural product baicalein can activate the oxidative phosphorylation. Then, it is necessary to clarify relationship between activation of the oxidative phosphorylation by baicalein and anti-cancer activity thereof. Cancer cells have the “Warburg effect”, that is, cancer cells tend to use glycolysis in replace of the oxidative phosphorylation which normal cells tend to use, so that cancer cells grow at a much faster rate than normal cells. […] The present disclosure verifies this phenomenon in HepG2 and HuH7 cells. […] 1,000 cells or 4 μg mitochondria were added to the well plate provided by the Seahorse detection kit (Agilent, 103275-100). Related measurements were carried out following instructions.

Compound: O=c1cc(-c2ccccc2)oc2cc(O)c(O)c(O)c12 [baicalein]
- therapeutic effect on mice with hepatocellular carcinoma [1]: significant therapeutic effect
- liver toxicity [2]: no liver toxicity
- weight loss of mice [2]: no weight loss
- proliferation inhibition effect (HuH7 cells [3]): significantly inhibits
- oxidative phosphorylation in the mitochondria [4]: activation of the oxidative phosphorylation in a concentration dependent and time dependent manner
- anti-cancer activity after knockdown of a key enzyme of oxidative phosphorylation (HuH7 cells [5]): greatly weakened
- proliferation inhibition effect (HepG2 cells): significantly inhibits
- glycolysis [6]: inhibits the glycolysis
- ATP production in oxidative phosphorylation ([6]; baicalein 100 μM): can improve
- basal respiration value ([6]; baicalein 100 μM): can improve
- maximum respiration value ([6]; baicalein 100 μM): can improve
- level of oxidative phosphorylation ([6]; different concentrations of baicalein): activates the oxidative phosphorylation in a concentration dependent manner; also recorded: increasing level of the oxidative phosphorylation
- glycolysis [7]: inhibits the glycolysis
- level of oxidative phosphorylation [7]: increasing level of the oxidative phosphorylation
